Experimental data published in patent publication US5608056A, “Substituted 3-pyrrolidinylthio-carbapenems as antimicrobial agents” (Fujisawa Pharmaceutical Co., Ltd., priority 1992, dated 1997).

System: P. aeruginosa IAM1095
Experiment: in vitro antimicrobial activity, two-fold agar-plate dilution method (MIC)
Assay type: cell-based
Conditions: Pseudomonas aeruginosa, heart infusion agar (HI-agar), 10^6 viable cells per ml, 37° C., 20 hours, read-out: minimal inhibitory concentration (MIC)
Experimental: in vitro Antimicrobial Activity was determined by the two-fold agar-plate dilution method as described below.
One loopful of an overnight culture of a test strain in Trypticase-soy broth (10^6 viable cells per ml) was streaked on heart infusion agar (HI-agar) containing graded concentrations of the test compound, and the minimal inhibitory concentration (MIC) was expressed in terms of μg/ml after incubation at 37° C. for 20 hours.

Q: `C[C@@H](O)[C@H]1C(=O)N2C(C(=O)O)=C(S[C@@H]3CN[C@H](CC[n+]4ccn(C)c4)C3)[C@H](C)[C@H]12` [Example 4-4), (4R,5S,6S)-6-[(1R)-1-hydroxyethyl]-4-methyl-3-[(2R,4S)-2-{2-(3-methyl-1-imidazolio)ethyl}pyrrolidin-4-yl]thio-7-oxo-1-azabicyclo[3.2.0]hept-2-ene-2-carboxylic acid chloride] was tested. Which MIC did it give?
A: 0.78 µg/mL
